# Laboratory results: PubChem BioAssay AID1963985 (Molecular Pharmacology Branch, DTP, NCI, 2024)
# Test system: 252836-082-R-J2-PDC tumor spheroids, viability
# Assay: Anticancer human tumor 252836-082-R-J2-PDC patient-derived head and neck squamous cell carcinoma cell line growth inhibition [PI3K]
# Conditions: spheroids with HUVEC and MSC; for IC50: curve of first compound; for viability, T/C: stronger effect = lower value
# How it was run: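 We assembled tumor spheroids that included a stromal compartment of HUVEC and MSCs, then exposed them to targeted agents alone and together with PI3K pathway inhibitors. Concentration series descended by half-log from clinically achievable Cmax levels. Viability served as the endpoint.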
# 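Note: spheroids exposed to agents for seven days before readout.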
# 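Throughout, for viability, T/C: percent of vehicle DMSO control viability so 100% = untreated growth.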
compound,measurement,setting,value
Cn1cnc2c(F)c(Nc3ccc(Br)cc3Cl)c(C(=O)NOCCO)cc21 + COc1c(OCCCN2CCOCC2)ccc2c3n(c(=NC(=O)c4cnc(N)nc4)nc12)CCN3,IC50,second compound 0.00316 µM,2050 nM
same,IC50,second compound 0.01 µM,1070 nM
same,IC50,second compound 0.0316 µM,78.4 nM
same,IC50,second compound 0.1 µM,< 9.49 nM
same,IC50,second compound 0.316 µM,< 9.49 nM
same,IC50,second compound 1 µM,< 9.49 nM
same,"viability, T/C","second compound 0.00316 µM, first compound 0.00949 µM",91.6%
same,"viability, T/C","second compound 0.00316 µM, first compound 0.03 µM",71.5%
same,"viability, T/C","second compound 0.00316 µM, first compound 0.0949 µM",82.4%
same,"viability, T/C","second compound 0.00316 µM, first compound 0.3 µM",80.4%
same,"viability, T/C","second compound 0.00316 µM, first compound 0.949 µM",75.3%
same,"viability, T/C","second compound 0.00316 µM, first compound 3 µM",37.5%
same,"viability, T/C","second compound 0.01 µM, first compound 0.00949 µM",73.5%
same,"viability, T/C","second compound 0.01 µM, first compound 0.03 µM",70.3%
same,"viability, T/C","second compound 0.01 µM, first compound 0.0949 µM",76.7%
same,"viability, T/C","second compound 0.01 µM, first compound 0.3 µM",65.2%
same,"viability, T/C","second compound 0.01 µM, first compound 0.949 µM",52.1%
same,"viability, T/C","second compound 0.01 µM, first compound 3 µM",35.5%
same,"viability, T/C","second compound 0.0316 µM, first compound 0.00949 µM",59.6%
same,"viability, T/C","second compound 0.0316 µM, first compound 0.03 µM",48.8%
same,"viability, T/C","second compound 0.0316 µM, first compound 0.0949 µM",49%
same,"viability, T/C","second compound 0.0316 µM, first compound 0.3 µM",46.2%
same,"viability, T/C","second compound 0.0316 µM, first compound 0.949 µM",34.1%
same,"viability, T/C","second compound 0.0316 µM, first compound 3 µM",25.1%
same,"viability, T/C","second compound 0.1 µM, first compound 0.00949 µM",31.6%
same,"viability, T/C","second compound 0.1 µM, first compound 0.03 µM",33.3%
same,"viability, T/C","second compound 0.1 µM, first compound 0.0949 µM",33.1%
same,"viability, T/C","second compound 0.1 µM, first compound 0.3 µM",29.5%
same,"viability, T/C","second compound 0.1 µM, first compound 0.949 µM",18%
same,"viability, T/C","second compound 0.1 µM, first compound 3 µM",7.77%
same,"viability, T/C","second compound 0.316 µM, first compound 0.00949 µM",14.8%
same,"viability, T/C","second compound 0.316 µM, first compound 0.03 µM",12.2%
same,"viability, T/C","second compound 0.316 µM, first compound 0.0949 µM",9.2%
same,"viability, T/C","second compound 0.316 µM, first compound 0.3 µM",7.79%
same,"viability, T/C","second compound 0.316 µM, first compound 0.949 µM",3.35%
same,"viability, T/C","second compound 0.316 µM, first compound 3 µM",0.38%
same,"viability, T/C","second compound 1 µM, first compound 0.00949 µM",2.53%
same,"viability, T/C","second compound 1 µM, first compound 0.03 µM",2.17%
same,"viability, T/C","second compound 1 µM, first compound 0.0949 µM",2.32%
same,"viability, T/C","second compound 1 µM, first compound 0.3 µM",0.64%
same,"viability, T/C","second compound 1 µM, first compound 0.949 µM",3.69%
same,"viability, T/C","second compound 1 µM, first compound 3 µM",0.18%
